Measurements taken from patent US12636370B2, “Combination therapy for treatment of cancer” (Institute For Cancer Research, priority 2019, dated 2026).

Legend:
Assay type in all cases: cell-based
OVCAR8 cells [1] = test: CellTiter-Glo cell viability, OVCAR8 parental cells; conditions: dose escalation, 5 days
[2] = test system: BET proteins (BRD2, BRD3, BRD4); test: Western blot of BET protein levels, OVCAR8 parental cells
OVCAR8 cells [3] = test: Single-run proteome analysis and RNA-seq, OVCAR8 cells; conditions: 48 hours, single-run proteome analysis
Experimental: Enrichment maps of pathways repressed by short-term BBD generated from single-run proteome profiles of OVCAR8 cells treated with BBDs (MZ1 or ARV825) for 48 hours were prepared (data not shown). Statistical differences in protein log 2 LFQ z-scores comparing BBDs or BBIs to control treated cells was determined by paired T-Test Benjamini-Hochberg adjusted p values at FDR of <0.05 using Perseus Software. […] Enrichment maps were generated in Cytoscape using the Enrichment Map app v2.2.1. […] Statistical differences in protein log 2 LFQ z-scores comparing BBDs or BBIs to control treated cells was determined.

[4] = test system: translation markers, RNA pol II, MYC; test: Western blot of translation, BRD4-targets and MYC signaling, OVCAR8 cells; conditions: 500 nM, 48 hours
kinome = test: MIB-MS kinome profiling, OVCAR8 cells; conditions: 48 hours
[5] = test system: RTKs, EGFR, ERBB2, ERBB3, FGFR1, and IGF1R; test: Western blot of kinase (RTK) protein levels, OVCAR8 cells; conditions: 500 nM, 48 hours
[6] = test system: RTKs FGFR1, FGFR2, FGFR3, IGF1R and ERBB4; test: Western blot of RTK protein levels, KURAMOCHI and COV362 cells; conditions: 500 nM, 48 hours
OVCAR8 MZ1-R cells = test: CellTiter-Glo cell viability, OVCAR8 MZ1-R cells; conditions: OVCAR8 MZ1-R, escalating doses, 5 days
OVCAR8 ARV-R cells [7] = test: CellTiter-Glo cell viability, OVCAR8 ARV-R cells; conditions: escalating doses, 5 days
OVCAR8 JQ1-R cells [8] = test: CellTiter-Glo cell viability, OVCAR8 JQ1-R cells; conditions: escalating doses, 5 days
[9] = test system: BET proteins (BRD2, BRD3, BRD4); test: Western blot of BET proteins and BRD4 targets, OVCAR8 MZ1-R cells; conditions: Western blot
[10] = test system: BET proteins (BRD2, BRD3, BRD4); test: Western blot of BET proteins, OVCAR8 ARV-R cells
BET proteins, FOSL1, MYC = test: Western blot of BET proteins and BRD4 targets, JQ1-R cells
OVCAR8 ARV-R cells [11] = test: Apoptosis by cleaved PARP Western blot, OVCAR8 ARV-R cells
OVCAR8 JQ1-R cells [12] = test: Apoptosis by cleaved PARP Western blot, OVCAR8 JQ1-R cells
PEO1 JQ1-R cells = test: CellTiter-Glo cell viability, PEO1 JQ1-R cells; conditions: escalating doses, 5 days
[13] = test system: KURAMOCHI, COV362 and OVCAR5 MZ1-R cells; test: CellTiter-Glo cell viability, KURAMOCHI, COV362 and OVCAR5 MZ1-R cells; conditions: COV362 and OVCAR5, escalating doses, 5 days
[14] = test system: BET proteins (BRD2, BRD4); test: Western blot of BET proteins, KURAMOCHI, COV362 and OVCAR5 MZ1-R cells
OVSAHO cells = test: Combination treatment of OVSAHO cells; conditions: BRD4 overexpressing HGSOC cell line OVSAHO
SW48 (KRAS WT) cells = test: Cell-Titer Glo cell viability, SW48 (KRAS WT) cells
Experimental: (§1) K-ras mutations promote resistance to BET protein degraders that can be overcome by MTORC1 inhibitors. Briefly, isogenic SW48 colorectal cancer cells expressing wild-type or mutant (G12D) K-ras were treated with increasing doses of MZ1 and cell viability was assessed. Expression of K-ras mutants promote resistance to MZ1 therapy (FIG. 18, Panel A). Immunoblot analysis depicts activation of translation by forced expression of K-ras G12D mutants in SW48 cells (FIG. 18, Panel B). SW48 cells expressing wild-type or K-ras G12D mutants were treated with DMSO, 2 μM RAD001, increasing doses of MZ1 or 2 μM RAD001+increasing doses of MZ1 for 4 hours and BRD4 protein assessed by Western blot. A Cell-Titer Glo assay was performed for cell viability of SW48 (KRAS G12D) cell lines treated with increasing concentrations of RAD001, MZ1 or the combination of RAD001 and MZ1 and cultured for 120 hours. Data were analyzed as % cell viability of DMSO control, presented as means of 3 independent assays. […] Data were analyzed as % cell viability of DMSO control, presented as means of 3 independent assays. […]

SW48 (KRAS G12D) cells = test: Cell-Titer Glo cell viability, SW48 (KRAS G12D) cells
Experimental: as §1

BRD4 = target: T1, BRD4 (Homo sapiens, UniProt O60885); test: Western blot of BRD4 protein, SW48 K-ras G12D cells; conditions: 4 hours
T1 construct: endogenous in cells
Experimental: as §1

Cc1ncsc1-c1ccc(CNC(=O)[C@@H]2C[C@@H](O)CN2C(=O)[C@@H](NC(=O)COCCOCCOCCNC(=O)C[C@@H]2N=C(c3ccc(Cl)cc3)c3c(sc(C)c3C)-n3c(C)nnc32)C(C)(C)C)cc1 [MZ1]
GI50 (OVCAR8 cells [1]): 142 nM | BET protein levels [2]: degraded BET proteins in a concentration-dependent manner | global protein level changes (OVCAR8 cells [3]): uniquely downregulated proteins involved in ribosome and translation signaling | MYC protein levels [4]: reduced MYC protein levels | phosphorylation of translation markers ([4]; relative to cis-MZ1 or JQ1): distinctly reduced phosphorylation of FOX01/3 (T24/32), P70S6 Kinase (T389), pEIF4E (S209) and p4EBP1 (T37/46) | kinase MIB-binding (kinome): uniquely increased MIB-binding of INSR, CDK7, EPHA4 and EPHA2 | RTK protein levels [5]: MZ1-specific reduction of RTKs, EGFR, ERBB2, ERBB3, FGFR1, and IGF1R | RTK protein levels [6]: downregulation of RTKs protein levels such as FGFR1, FGFR2, FGFR3, IGF1R and ERBB4 | cell viability of MZ1-R cells compared with parental cells (OVCAR8 MZ1-R cells): rightward shift | cell viability of ARV-R cells compared with parental cells (OVCAR8 ARV-R cells [7]): failed to reduce BET proteins, block growth or induce apoptosis | cell viability of JQ1-R cells (OVCAR8 JQ1-R cells [8]): inhibited cell viability | BET protein levels [9]: insufficient to degrade BRD2, BRD3 or BRD4 | BET protein levels [10]: failed to reduce BET proteins, block growth or induce apoptosis | BET protein levels (BET proteins, FOSL1, MYC): degraded BET proteins | BRD4 target (FOSL1, MYC) protein levels (BET proteins, FOSL1, MYC): reduced MYC/FOSL1 protein levels | apoptosis (OVCAR8 ARV-R cells [11]): failed to reduce BET proteins, block growth or induce apoptosis | apoptosis (OVCAR8 JQ1-R cells [12]): induced apoptosis | cell killing / viability (PEO1 JQ1-R cells): can be killed by treatment with BET PROTAC MZ1 | cell viability / growth of MZ1-R cells compared with parental cells [13]: rightward shift | BET protein levels [14]: failed to mediated degradation of BET proteins | dose sufficient to induce sensitivity towards GSK529A, lapatinib or RAD001 (OVSAHO cells): 10 nM | inhibition of viability (SW48 (KRAS WT) cells; SW48 K-Ras WT cells, single agent, low concentrations): > 50% | GI50 (SW48 (KRAS WT) cells; SW48 parental (wild-type K-Ras) cells): 0.63 nM | GI50 (SW48 (KRAS G12D) cells; SW48 cells harboring K-Ras G12D mutation): 63 nM | shift in GI50, K-Ras mutant vs parental cells (SW48 (KRAS G12D) cells; SW48 isogenic cells): 10 fold | BRD4 degradation (BRD4): impaired the degradation of BRD4
